Measured values as given in article PMC4164625 (PLoS ONE, 2014).

Columns and labels:
yeast Sir2 = settings: cited from earlier work
SIRT5 = settings: cited from earlier work
SIRT2 = settings: cited from earlier work
SIRT1 = settings: cited from earlier work
recombinant human SIRT1 [1] = target: T1, recombinant human SIRT1 (Homo sapiens, UniProt Q96EB6); assay: SIRT1 initial-rate inhibition kinetics against NAD+, global nonlinear fitting (Eq. 1); assay type: biochemical; design: purchased Enzo Life Sciences AK 555
T1 sequence (Q96EB6 1-747): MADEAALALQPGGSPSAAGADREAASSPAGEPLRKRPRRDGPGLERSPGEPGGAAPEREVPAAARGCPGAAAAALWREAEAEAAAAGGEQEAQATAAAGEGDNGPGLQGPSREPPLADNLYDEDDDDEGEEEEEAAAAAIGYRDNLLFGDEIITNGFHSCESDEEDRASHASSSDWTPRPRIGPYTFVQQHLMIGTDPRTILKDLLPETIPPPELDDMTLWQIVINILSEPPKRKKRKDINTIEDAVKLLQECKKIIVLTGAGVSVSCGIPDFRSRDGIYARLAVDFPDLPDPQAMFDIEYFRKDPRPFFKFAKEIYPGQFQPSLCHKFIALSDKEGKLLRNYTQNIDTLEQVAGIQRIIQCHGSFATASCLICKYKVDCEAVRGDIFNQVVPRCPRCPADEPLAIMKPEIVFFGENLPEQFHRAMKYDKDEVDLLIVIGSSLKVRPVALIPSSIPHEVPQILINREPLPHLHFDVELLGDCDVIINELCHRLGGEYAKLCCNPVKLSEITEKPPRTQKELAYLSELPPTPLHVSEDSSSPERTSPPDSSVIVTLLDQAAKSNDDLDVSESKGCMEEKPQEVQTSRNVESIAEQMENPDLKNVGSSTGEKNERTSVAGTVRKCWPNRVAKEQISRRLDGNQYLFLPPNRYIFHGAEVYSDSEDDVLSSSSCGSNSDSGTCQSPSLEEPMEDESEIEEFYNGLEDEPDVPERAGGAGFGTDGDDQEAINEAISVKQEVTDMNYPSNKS
Excerpt: We utilized a novel deacetylation activity assay that generates a fluorescent signal upon deacetylation of a peptide substrate.
Data are globally nonlinear fitted to base exchange inhibition model (Eq. 1) and shown as a double-reciprocal plot of 1/v versus 1/[NAD^+]. In (C) and (D), the intersection points of the double reciprocal plots are enlarged for SIRT1 and SIRT3, respectively.

mouse Sir2 = settings: cited from earlier work
bacterial Sir2 = settings: cited from earlier work
recombinant human SIRT3 [2] = target: T2, recombinant human SIRT3 (Homo sapiens, UniProt Q9NTG7); assay: SIRT3 initial-rate inhibition kinetics against NAD+, global nonlinear fitting (Eq. 1 / Eq. 2)
T2 sequence (Q9NTG7 1-399): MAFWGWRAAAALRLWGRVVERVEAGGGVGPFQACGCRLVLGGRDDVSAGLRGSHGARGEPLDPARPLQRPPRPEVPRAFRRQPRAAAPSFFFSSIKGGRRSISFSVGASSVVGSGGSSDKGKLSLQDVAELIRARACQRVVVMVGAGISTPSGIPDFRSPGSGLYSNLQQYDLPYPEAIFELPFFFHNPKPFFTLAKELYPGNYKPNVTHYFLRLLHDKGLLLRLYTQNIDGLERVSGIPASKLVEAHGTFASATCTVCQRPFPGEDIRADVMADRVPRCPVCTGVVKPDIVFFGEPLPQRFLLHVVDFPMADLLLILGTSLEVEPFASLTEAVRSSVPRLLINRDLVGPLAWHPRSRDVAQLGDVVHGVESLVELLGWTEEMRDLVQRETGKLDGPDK

recombinant human SIRT3 [3] = target: T2, recombinant human SIRT3; assay: Fluorometric deacetylation assay, IC50 of NAM and isoNAM for SIRT3; assay type: biochemical; design: purchased Creative BioMart; settings: 90 minutes incubation, 1 mM NAD^+ at 37°C (Methods b105: 100 µM NAD^+)
recombinant human SIRT1 [4] = target: T1, recombinant human SIRT1; assay: Fluorometric deacetylation assay, IC50 of NAM and isoNAM for SIRT1

SMILES | IC50 (yeast Sir2) [µM] | IC50 (SIRT5) [µM] | IC50 (SIRT2) [µM] | IC50 (SIRT1) [µM] | Vmax, model parameter estimate (recombinant human SIRT1 [1]; global nonlinear fit of initial rates with NAM (Eq. 1)) [µM/min] | Michaelis constant, model parameter estimate (recombinant human SIRT1 [1]; global nonlinear fit of initial rates with NAM (Eq. 1), varying NAD^+, saturating peptide, 37°C) [µM] | α (recombinant human SIRT1 [1]; mixed inhibition model, K3≡αK2 (Eq. 1)) | IC50 (mouse Sir2) [µM] | IC50 (bacterial Sir2) [µM] | Ki (recombinant human SIRT3 [2]; K 2(K i), K2 of Eq. 1 for NAM, Ki of Eq. 2 for isoNAM (in brackets), unit inferred, b71 gives isoNAM Ki≈4.6 mM) [µM] | Ki (recombinant human SIRT3 [2]; Ki, from fitting of Eq. 2, as restated in the Discussion) [µM] | Inhibition mode with respect to NAD^+ (recombinant human SIRT3 [2]; double reciprocal plot / value of α) | Vmax, model parameter estimate (recombinant human SIRT3 [2]; global nonlinear fit of initial rates with the named inhibitor (Eq. 1 for NAM, Eq. 2 for isoNAM)) [µM/min] | Michaelis constant, model parameter estimate (recombinant human SIRT3 [2]; global nonlinear fit of initial rates with the named inhibitor (Eq. 1 for NAM, Eq. 2 for isoNAM), varying NAD^+, saturating peptide, 37°C) [µM] | IC50 (recombinant human SIRT3 [3]) [µM] | IC50 (recombinant human SIRT1 [4]) [µM]
NC(=O)c1cccnc1 [NAM, nicotinamide] | 120 | 1600 | […] | 50 | 0.863 | 168.2 | 0.848 | 160 | 26 | – | – | – | – | – | – | –
NC(=O)c1ccncc1 [isoNAM, isonicotinamide] | – | – | – | – | – | – | – | – | – | 4620 | ~4600 | competitive inhibitor | 0.167 | 1402 | 13800 ± 500 | 12200 ± 300
